Results from patent US20230085307A1, “PYRIDAZINONE COMPOUND AND HERBICIDE” (NISSAN CHEMICAL CORPORATION, priority 2019, published 2023).

What was measured:
oval-leafed pondweed = test: Test Example 1: herbicidal activity, application before weed generation under submerged conditions (Table 16, symbol C); assay type: in vivo, oval-leafed pondweed (Monochoria vaginalis)
How it was run: (§1)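 Submerged Wagner pots (alluvial soil, 4 cm water) sown with weed seeds and planted with 2.5-leaf rice seedlings; emulsifiable concentrate diluted in water applied to water surface on sowing day. Held in greenhouse at 25-30 °C; injury scored 0-5 by herbicidal rate after three weeks.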

barnyard grass [1] = test: Test Example 4: herbicidal effect by soil treatment (Table 19, symbol H); assay type: in vivo, barnyard grass (Echinochloa crus-galli)
How it was run: (§2)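 Herbicidal effect was rated 3 weeks after treatment, using the scoring criteria of an earlier test. The compound, formulated as an emulsion and diluted in water to a set herbicide amount, had been sprayed uniformly on soil over freshly sown seeds. Growth took place in a greenhouse at 25° C. to 30° C.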

green foxtail [2] = test: Test Example 4: herbicidal effect by soil treatment (Table 19, symbol G); assay type: in vivo, green foxtail (Setaria viridis)
How it was run: as §2

rice flat sedge = test: Test Example 3: herbicidal effect by foliage application, Wagner pot (Table 18, symbol E); assay type: in vivo, rice flat sedge (Cyperus iria); conditions: 320 g/ha
How it was run: (§3)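 Plants were sown in alluvial soil held under 0.1–0.5 cm standing water and grown 14 days in a greenhouse at 25–30 °C. An emulsifiable formulation, water-diluted to the set dose, was then sprayed onto the foliage, and effects were scored three weeks later using previously defined criteria.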

lambsquarters [3] = test: Test Example 5: herbicidal effect by foliage application, plastic box (Table 20, symbol O); assay type: in vivo, lambsquarters (Chenopodium album); conditions: foliage application, 320 g/ha
How it was run: (§4)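 Foliar spray test: emulsion formulation diluted in water to a set application rate, sprayed onto 14-day-old plants raised in diluvial soil at 25° C to 30° C under glass. Both herbicidal effect and crop effect rated visually three weeks later.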

lambsquarters [4] = test: Test Example 4: herbicidal effect by soil treatment (Table 19, symbol O); assay type: in vivo, lambsquarters (Chenopodium album)
How it was run: as §2

southern crabgrass [5] = test: Test Example 4: herbicidal effect by soil treatment (Table 19, symbol F); assay type: in vivo, southern crabgrass (Digitaria ciliaris)
How it was run: as §2

late watergrass = test: Test Example 1: herbicidal activity, application before weed generation under submerged conditions (Table 16, symbol A); assay type: in vivo, late watergrass (Echinochloa oryzicola)
How it was run: as §1

southern crabgrass [6] = test: Test Example 5: herbicidal effect by foliage application, plastic box (Table 20, symbol F); assay type: in vivo, southern crabgrass (Digitaria ciliaris); conditions: foliage application, 320 g/ha
How it was run: as §4

green foxtail [7] = test: Test Example 5: herbicidal effect by foliage application, plastic box (Table 20, symbol G); assay type: in vivo, green foxtail (Setaria viridis); conditions: foliage application, 320 g/ha
How it was run: as §4

wild oat [8] = test: Test Example 5: herbicidal effect by foliage application, plastic box (Table 20, symbol I); assay type: in vivo, wild oat (Avena fatua); conditions: foliage application, 320 g/ha
How it was run: as §4

redroot pigweed [9] = test: Test Example 4: herbicidal effect by soil treatment (Table 19, symbol N); assay type: in vivo, redroot pigweed (Amaranthus retroflexus)
How it was run: as §2

Italian ryegrass [10] = test: Test Example 5: herbicidal effect by foliage application, plastic box (Table 20, symbol K); assay type: in vivo, Italian ryegrass (Lolium multiflorum); conditions: foliage application, 320 g/ha
How it was run: as §4

velvetleaf [11] = test: Test Example 4: herbicidal effect by soil treatment (Table 19, symbol M); assay type: in vivo, velvetleaf (Abutilon theophrasti)
How it was run: as §2

Japanese bulrush = test: Test Example 1: herbicidal activity, application before weed generation under submerged conditions (Table 16, symbol B); assay type: in vivo, Japanese bulrush (Schoenoplectus juncoides)
How it was run: as §1

Italian ryegrass [12] = test: Test Example 4: herbicidal effect by soil treatment (Table 19, symbol K); assay type: in vivo, Italian ryegrass (Lolium multiflorum)
How it was run: as §2

chickweed [13] = test: Test Example 4: herbicidal effect by soil treatment (Table 19, symbol P); assay type: in vivo, common chickweed (Stellaria media)
How it was run: as §2

barnyard grass [14] = test: Test Example 3: herbicidal effect by foliage application, Wagner pot (Table 18, symbol H); assay type: in vivo, barnyard grass (Echinochloa crus-galli); conditions: 320 g/ha
How it was run: as §3

velvetleaf [15] = test: Test Example 5: herbicidal effect by foliage application, plastic box (Table 20, symbol M); assay type: in vivo, velvetleaf (Abutilon theophrasti); conditions: foliage application, 320 g/ha
How it was run: as §4

wild oat [16] = test: Test Example 4: herbicidal effect by soil treatment (Table 19, symbol I); assay type: in vivo, wild oat (Avena fatua)
How it was run: as §2

blackgrass [17] = test: Test Example 4: herbicidal effect by soil treatment (Table 19, symbol J); assay type: in vivo, blackgrass (Alopecurus myosuroides)
How it was run: as §2

blackgrass [18] = test: Test Example 5: herbicidal effect by foliage application, plastic box (Table 20, symbol J); assay type: in vivo, blackgrass (Alopecurus myosuroides); conditions: foliage application, 320 g/ha
How it was run: as §4

Chinese sprangletop = test: Test Example 3: herbicidal effect by foliage application, Wagner pot (Table 18, symbol D); assay type: in vivo, chinese sprangletop (Leptochloa chinensis); conditions: 320 g/ha
How it was run: as §3

windgrass [19] = test: Test Example 5: herbicidal effect by foliage application, plastic box (Table 20, symbol L); assay type: in vivo, windgrass (Apera spica-venti); conditions: foliage application, 320 g/ha
How it was run: as §4

persian speedwell [20] = test: Test Example 4: herbicidal effect by soil treatment (Table 19, symbol R); assay type: in vivo, Persian speedwell (Veronica persica); conditions: amount of applied herbicide 320 g/ha
How it was run: as §2

barnyard grass [21] = test: Test Example 5: herbicidal effect by foliage application, plastic box (Table 20, symbol H); assay type: in vivo, barnyard grass (Echinochloa crus-galli); conditions: foliage application, 320 g/ha
How it was run: as §4

persian speedwell [22] = test: Test Example 5: herbicidal effect by foliage application, plastic box (Table 20, symbol R); assay type: in vivo, Persian speedwell (Veronica persica); conditions: foliage application, 320 g/ha
How it was run: as §4

windgrass [23] = test: Test Example 4: herbicidal effect by soil treatment (Table 19, symbol L); assay type: in vivo, windgrass (Apera spica-venti); conditions: 320 g/ha
How it was run: as §2

redroot pigweed [24] = test: Test Example 5: herbicidal effect by foliage application, plastic box (Table 20, symbol N); assay type: in vivo, redroot pigweed (Amaranthus retroflexus); conditions: foliage application, 320 g/ha, evaluated three weeks after application
How it was run: as §4

chickweed [25] = test: Test Example 5: herbicidal effect by foliage application, plastic box (Table 20, symbol P); assay type: in vivo, common chickweed (Stellaria media); conditions: foliage application, 320 g/ha, evaluated three weeks after application
How it was run: as §4

[26] = amount of applied herbicide 320 g/ha
[27] = evaluated three weeks after application

COc1cc2sc(-c3ccccc3OC)c(-c3c(O)c(C)nn(C)c3=O)c2cc1F [5-064]
Herbicidal effect, C: oval-leafed pondweed (oval-leafed pondweed; [26]): 0 (Herbicidal rate of 5% or less (almost no effect))
H: barnyard grass, herbicidal effect grade (barnyard grass [1]; [26]): 4 (Herbicidal rate of 70% or more and less than 90%)
G: green foxtail, herbicidal effect grade (green foxtail [2]; [26]): 4 (Herbicidal rate of 70% or more and less than 90%)
herbicidal effect on rice flat sedge (E) (rice flat sedge): 5 (Herbicidal rate of 90% or more (almost completely withered))
herbicidal effect on lambsquarters (O) (lambsquarters [3]; three weeks after application): 3 (Herbicidal rate of 40% or more and less than 70%)
O: lambsquarters, herbicidal effect grade (lambsquarters [4]; [26]): 3 (Herbicidal rate of 40% or more and less than 70%)
F: southern crabgrass, herbicidal effect grade (southern crabgrass [5]; [26]): 3 (Herbicidal rate of 40% or more and less than 70%)
Herbicidal effect, A: late watergrass (late watergrass; [26]): 2 (Herbicidal rate of 20% or more and less than 40%)
herbicidal effect on southern crabgrass (F) (southern crabgrass [6]; three weeks after application): 4 (Herbicidal rate of 70% or more and less than 90%)
herbicidal effect on green foxtail (G) (green foxtail [7]; three weeks after application): 5 (Herbicidal rate of 90% or more (almost completely withered))
herbicidal effect on wild oat (I) (wild oat [8]; three weeks after application): 4 (Herbicidal rate of 70% or more and less than 90%)
N: redroot pigweed, herbicidal effect grade (redroot pigweed [9]; [26]): 4 (Herbicidal rate of 70% or more and less than 90%)
herbicidal effect on Italian ryegrass (K) (Italian ryegrass [10]; three weeks after application): 3 (Herbicidal rate of 40% or more and less than 70%)
M: velvetleaf, herbicidal effect grade (velvetleaf [11]; [26]): 2 (Herbicidal rate of 20% or more and less than 40%)
Herbicidal effect, B: Japanese bulrush (Japanese bulrush; [26]): 0 (Herbicidal rate of 5% or less (almost no effect))
K: Italian ryegrass, herbicidal effect grade (Italian ryegrass [12]; [26]): 0 (Herbicidal rate of 5% or less (almost no effect))
P: chickweed, herbicidal effect grade (chickweed [13]; [26]): 4 (Herbicidal rate of 70% or more and less than 90%)
herbicidal effect on barnyard grass (H) (barnyard grass [14]): 5 (Herbicidal rate of 90% or more (almost completely withered))
herbicidal effect on velvetleaf (M) (velvetleaf [15]; three weeks after application): 4 (Herbicidal rate of 70% or more and less than 90%)
I: wild oat, herbicidal effect grade (wild oat [16]; [26]): 0 (Herbicidal rate of 5% or less (almost no effect))
J: blackgrass, herbicidal effect grade (blackgrass [17]; [26]): 1 (Herbicidal rate of 5% or more and less than 20%)
herbicidal effect on blackgrass (J) (blackgrass [18]; three weeks after application): 4 (Herbicidal rate of 70% or more and less than 90%)
herbicidal effect on Chinese sprangletop (D) (Chinese sprangletop): 2 (Herbicidal rate of 20% or more and less than 40%)
herbicidal effect on windgrass (L) (windgrass [19]; three weeks after application): 5 (Herbicidal rate of 90% or more (almost completely withered))
R: persian speedwell, herbicidal effect grade (persian speedwell [20]): 5 (Herbicidal rate of 90% or more (almost completely withered))
herbicidal effect on barnyard grass (H) (barnyard grass [21]; three weeks after application): 4 (Herbicidal rate of 70% or more and less than 90%)
herbicidal effect on persian speedwell (R) (persian speedwell [22]; three weeks after application): 5 (Herbicidal rate of 90% or more (almost completely withered))

Cc1nn(C)c(=O)c(-c2c(-c3ccc(OS(=O)(=O)C(F)(F)F)cc3)sc3ccc(F)cc23)c1O [2-075]
Herbicidal effect on C: oval-leafed pondweed (grade 0-5) (oval-leafed pondweed; 320 g/ha applied herbicide): 0 (Herbicidal rate of 5% or less (almost no effect))
herbicidal effect rating, H: barnyard grass (barnyard grass [1]; 320 g/ha): 0 (Herbicidal rate of 5% or less (almost no effect))
herbicidal effect rating, G: green foxtail (green foxtail [2]; 320 g/ha): 0 (Herbicidal rate of 5% or less (almost no effect))
herbicidal effect on E (rice flat sedge), rating 0-5 (rice flat sedge): 4 (Herbicidal rate of 70% or more and less than 90%)
herbicidal effect on O: lambsquarters (lambsquarters [3]; [27]): 3 (Herbicidal rate of 40% or more and less than 70%)
herbicidal effect rating, O: lambsquarters (lambsquarters [4]; 320 g/ha): 3 (Herbicidal rate of 40% or more and less than 70%)
herbicidal effect rating, F: southern crabgrass (southern crabgrass [5]; 320 g/ha): 0 (Herbicidal rate of 5% or less (almost no effect))
Herbicidal effect on A: late watergrass (grade 0-5) (late watergrass; 320 g/ha applied herbicide): 2 (Herbicidal rate of 20% or more and less than 40%)
herbicidal effect on F: southern crabgrass (southern crabgrass [6]; [27]): 0 (Herbicidal rate of 5% or less (almost no effect))
herbicidal effect on G: green foxtail (green foxtail [7]; [27]): 0 (Herbicidal rate of 5% or less (almost no effect))
herbicidal effect on I: wild oat (wild oat [8]; [27]): 0 (Herbicidal rate of 5% or less (almost no effect))
herbicidal effect rating, N: redroot pigweed (redroot pigweed [9]; 320 g/ha): 1 (Herbicidal rate of 5% or more and less than 20%)
herbicidal effect on K: Italian ryegrass (Italian ryegrass [10]; [27]): 0 (Herbicidal rate of 5% or less (almost no effect))
herbicidal effect rating, M: velvetleaf (velvetleaf [11]; 320 g/ha): 0 (Herbicidal rate of 5% or less (almost no effect))
Herbicidal effect on B: Japanese bulrush (grade 0-5) (Japanese bulrush; 320 g/ha applied herbicide): 2 (Herbicidal rate of 20% or more and less than 40%)
herbicidal effect rating, K: Italian ryegrass (Italian ryegrass [12]; 320 g/ha): 0 (Herbicidal rate of 5% or less (almost no effect))
herbicidal effect rating, P: chickweed (chickweed [13]; 320 g/ha): 0 (Herbicidal rate of 5% or less (almost no effect))
herbicidal effect on H (barnyard grass), rating 0-5 (barnyard grass [14]): 2 (Herbicidal rate of 20% or more and less than 40%)
herbicidal effect rating, L: windgrass (windgrass [23]): 0 (Herbicidal rate of 5% or less (almost no effect))
herbicidal effect on M: velvetleaf (velvetleaf [15]; [27]): 3 (Herbicidal rate of 40% or more and less than 70%)
herbicidal effect on N: redroot pigweed (redroot pigweed [24]): 2 (Herbicidal rate of 20% or more and less than 40%)
herbicidal effect rating, I: wild oat (wild oat [16]; 320 g/ha): 0 (Herbicidal rate of 5% or less (almost no effect))
herbicidal effect rating, J: blackgrass (blackgrass [17]; 320 g/ha): 0 (Herbicidal rate of 5% or less (almost no effect))
herbicidal effect on J: blackgrass (blackgrass [18]; [27]): 0 (Herbicidal rate of 5% or less (almost no effect))
herbicidal effect on D (Chinese sprangletop), rating 0-5 (Chinese sprangletop): 2 (Herbicidal rate of 20% or more and less than 40%)
herbicidal effect on L: windgrass (windgrass [19]; [27]): 0 (Herbicidal rate of 5% or less (almost no effect))
herbicidal effect on H: barnyard grass (barnyard grass [21]; [27]): 0 (Herbicidal rate of 5% or less (almost no effect))
herbicidal effect on P: chickweed (chickweed [25]): 3 (Herbicidal rate of 40% or more and less than 70%)
herbicidal effect on R: persian speedwell (persian speedwell [22]; [27]): 5 (Herbicidal rate of 90% or more (almost completely withered))
